According to US20230117470A1, “SUBSTITUTED PYRAZOLE COMPOUNDS AS TOLL RECEPTOR INHIBITORS” (BRISTOL-MYERS SQUIBB COMPANY, priority 2019, published 2023):

Assays:
Assay type in all cases: cell-based
human TLR8 = target: T1, human TLR8 (Homo sapiens, UniProt Q9NR97); assay: TLR8 inhibition reporter assay (HEK-Blue cells, SEAP reporter, R848 stimulation); conditions: HEK-Blue cells overexpressing human TLR8, SEAP reporter, R848 15.9 μM
T1 construct: host or cells: HEK-Blue cells
T1 sequence (Q9NR97 27-1041): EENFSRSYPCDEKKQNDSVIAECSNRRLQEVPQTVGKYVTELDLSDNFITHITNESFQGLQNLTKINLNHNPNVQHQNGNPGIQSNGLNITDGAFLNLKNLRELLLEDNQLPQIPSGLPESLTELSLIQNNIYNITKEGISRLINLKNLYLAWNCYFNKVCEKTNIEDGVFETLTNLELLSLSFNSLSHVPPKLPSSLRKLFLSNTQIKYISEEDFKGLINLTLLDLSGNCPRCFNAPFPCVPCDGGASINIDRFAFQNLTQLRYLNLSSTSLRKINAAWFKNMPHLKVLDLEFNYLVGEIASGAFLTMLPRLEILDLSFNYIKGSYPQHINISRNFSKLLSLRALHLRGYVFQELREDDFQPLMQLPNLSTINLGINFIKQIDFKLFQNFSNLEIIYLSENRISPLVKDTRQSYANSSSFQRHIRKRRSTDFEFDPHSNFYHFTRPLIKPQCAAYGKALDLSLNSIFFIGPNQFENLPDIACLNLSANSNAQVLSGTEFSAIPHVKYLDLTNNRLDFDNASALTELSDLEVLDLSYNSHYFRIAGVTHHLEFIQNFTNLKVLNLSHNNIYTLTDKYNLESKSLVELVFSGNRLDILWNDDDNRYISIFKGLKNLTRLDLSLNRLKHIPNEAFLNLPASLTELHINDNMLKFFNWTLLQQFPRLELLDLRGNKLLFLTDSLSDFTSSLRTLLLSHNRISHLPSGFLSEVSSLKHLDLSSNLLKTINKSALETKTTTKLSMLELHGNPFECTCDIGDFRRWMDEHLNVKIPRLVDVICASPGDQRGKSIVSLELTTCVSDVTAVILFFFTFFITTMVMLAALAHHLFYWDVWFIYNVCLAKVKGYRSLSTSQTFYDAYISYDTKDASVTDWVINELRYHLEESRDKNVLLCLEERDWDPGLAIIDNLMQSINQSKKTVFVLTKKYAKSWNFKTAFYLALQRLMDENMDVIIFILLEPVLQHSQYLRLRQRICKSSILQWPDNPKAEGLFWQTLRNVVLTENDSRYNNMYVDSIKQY
How it was run: (§1)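 Percent inhibition of agonist-induced SEAP, set between agonist+DMSO wells and known-inhibitor wells, after 22 h at 37° C. Compounds (0.05 nM-50 μM final) were added 30 min at room temperature before ligand: gardiquimod 7.5 μM for TLR7, R848 15.9 μM for TLR8, ODN2006 5 nM for TLR9. Human receptors overexpressed in HEK-Blue reporter cells.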

human TLR9 = target: T2, human TLR9 (Homo sapiens, UniProt Q9NR96); assay: TLR9 inhibition reporter assay (HEK-Blue cells, SEAP reporter, ODN2006 stimulation); conditions: HEK-Blue cells overexpressing human TLR9, SEAP reporter, ODN2006 5 nM
T2 construct: host or cells: HEK-Blue cells
T2 sequence (Q9NR96 26-1032): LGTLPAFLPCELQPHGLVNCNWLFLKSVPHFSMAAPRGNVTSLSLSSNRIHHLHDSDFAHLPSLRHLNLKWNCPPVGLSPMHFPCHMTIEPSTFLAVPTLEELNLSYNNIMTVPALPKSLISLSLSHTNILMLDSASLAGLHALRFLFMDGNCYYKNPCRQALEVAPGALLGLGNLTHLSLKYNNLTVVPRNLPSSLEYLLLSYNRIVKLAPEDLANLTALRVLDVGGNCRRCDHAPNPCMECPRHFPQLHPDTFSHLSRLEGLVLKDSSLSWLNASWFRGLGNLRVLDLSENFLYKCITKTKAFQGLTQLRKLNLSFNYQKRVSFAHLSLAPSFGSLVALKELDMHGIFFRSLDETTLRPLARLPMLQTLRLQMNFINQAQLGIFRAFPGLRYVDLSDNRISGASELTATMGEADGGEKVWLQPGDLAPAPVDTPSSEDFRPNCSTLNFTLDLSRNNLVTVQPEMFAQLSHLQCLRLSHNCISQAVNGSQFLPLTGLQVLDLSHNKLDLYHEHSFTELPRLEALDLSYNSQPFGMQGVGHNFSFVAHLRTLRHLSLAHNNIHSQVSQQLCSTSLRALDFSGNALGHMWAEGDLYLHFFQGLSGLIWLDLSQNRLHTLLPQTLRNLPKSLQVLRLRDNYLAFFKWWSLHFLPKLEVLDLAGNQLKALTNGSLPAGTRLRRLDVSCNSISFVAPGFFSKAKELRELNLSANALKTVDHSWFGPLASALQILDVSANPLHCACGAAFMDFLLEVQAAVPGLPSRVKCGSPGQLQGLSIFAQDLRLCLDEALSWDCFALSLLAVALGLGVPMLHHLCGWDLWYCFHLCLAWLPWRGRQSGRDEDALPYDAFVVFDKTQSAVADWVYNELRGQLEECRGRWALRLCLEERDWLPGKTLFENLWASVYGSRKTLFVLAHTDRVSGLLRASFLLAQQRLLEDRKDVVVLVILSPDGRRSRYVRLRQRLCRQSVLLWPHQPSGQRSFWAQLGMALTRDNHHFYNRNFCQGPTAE
How it was run: as §1

human TLR7 = target: T3, human TLR7 (Homo sapiens, UniProt Q9NYK1); assay: TLR7 inhibition reporter assay (HEK-Blue cells, SEAP reporter, gardiquimod stimulation); conditions: HEK-Blue cells overexpressing human TLR7, SEAP reporter, gardiquimod 7.5 μM
T3 construct: host or cells: HEK-Blue cells
T3 sequence (Q9NYK1 27-1049): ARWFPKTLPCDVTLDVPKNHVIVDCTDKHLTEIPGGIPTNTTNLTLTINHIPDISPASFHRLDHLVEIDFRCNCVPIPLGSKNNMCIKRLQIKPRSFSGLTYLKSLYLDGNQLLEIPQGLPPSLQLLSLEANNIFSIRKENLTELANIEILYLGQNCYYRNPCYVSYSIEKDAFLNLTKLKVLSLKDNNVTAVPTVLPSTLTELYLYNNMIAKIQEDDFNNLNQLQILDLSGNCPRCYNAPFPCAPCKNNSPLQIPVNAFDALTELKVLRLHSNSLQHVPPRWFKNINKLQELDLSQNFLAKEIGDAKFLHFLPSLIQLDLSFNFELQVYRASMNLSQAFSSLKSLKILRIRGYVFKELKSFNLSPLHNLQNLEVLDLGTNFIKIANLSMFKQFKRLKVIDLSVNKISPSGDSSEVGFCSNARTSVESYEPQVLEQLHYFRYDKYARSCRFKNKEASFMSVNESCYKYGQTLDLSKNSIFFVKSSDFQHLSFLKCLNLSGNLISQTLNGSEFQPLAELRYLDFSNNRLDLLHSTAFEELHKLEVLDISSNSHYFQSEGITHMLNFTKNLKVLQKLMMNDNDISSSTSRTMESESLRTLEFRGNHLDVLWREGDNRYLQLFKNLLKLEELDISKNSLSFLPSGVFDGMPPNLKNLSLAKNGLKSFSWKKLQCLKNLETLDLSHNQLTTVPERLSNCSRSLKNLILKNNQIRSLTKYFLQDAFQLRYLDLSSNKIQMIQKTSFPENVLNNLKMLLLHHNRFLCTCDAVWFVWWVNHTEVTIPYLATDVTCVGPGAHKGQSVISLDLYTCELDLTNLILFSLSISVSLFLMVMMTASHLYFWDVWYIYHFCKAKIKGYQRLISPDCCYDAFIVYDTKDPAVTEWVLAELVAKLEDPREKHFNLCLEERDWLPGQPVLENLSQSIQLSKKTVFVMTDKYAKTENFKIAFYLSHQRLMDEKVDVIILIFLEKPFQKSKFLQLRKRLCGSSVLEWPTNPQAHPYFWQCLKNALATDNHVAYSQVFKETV
How it was run: as §1

SMILES	IC50 (human TLR8) [nM]	IC50 (human TLR9) [nM]	IC50 (human TLR7) [nM]
CNC(=O)CN1CCC(c2cnc(-c3n[nH]c(-c4cc(OC)c5ncnn5c4)c3C(C)C)cn2)CC1 [Example 400]	15.9	9250	13.5
Cc1cc(-c2[nH]nc(-c3ccc4c(c3)CCN(C(=O)CN(C)C)C4)c2C(C)C)cn2ncnc12 [Example 268, 2-(dimethylamino)-1-(6-(4-isopropyl-5-(8-methyl-[1,2,4]triazolo[1,5-a]pyridin-6-yl)-1H-pyrazol-3-yl)-3,4-dihydroisoquinolin-2(1H)-yl)ethan-1-one]	65.1	> 50000	41.1
COc1cc(-c2[nH]nc(-c3cnc(C4CCN(CC(=O)N(C)C)CC4)cn3)c2C(C)C)cn2ncnc12 [Example 401]	35.7	13500	36.9
COc1cc(-c2[nH]nc(C(=O)NC3CCNCC3)c2CC(F)(F)F)cn2ncnc12 [Example 190, 5-(8-methoxy-[1,2,4]triazolo[1,5-a]pyridin-6-yl)-N-(piperidin-4-yl)-4-(2,2,2-trifluoroethyl)-1H-pyrazole-3-carboxamide]	0.58	8350	0.8
Cc1c(-c2[nH]nc(C(=O)NC3CCN(C(C)C)CC3)c2C(C)C)cn2ncnc2c1C [Example 33]	1.52	> 50000	3.86
CCN(CC)CC(=O)N1CCC(c2cnc(-c3n[nH]c(-c4cc(OC)c5ncnn5c4)c3C(C)C)cn2)CC1 [Example 404]	124	> 50000	43.6
COc1cc(-c2[nH]nc(-c3ccc(C4CCN(C(C)C)CC4)cn3)c2C(C)C)cn2ncnc12 [Example 350]	0.12	21700	8.11
COc1cc(-c2[nH]nc(-c3ccc(C4CN(C5COC5)C4)cc3)c2C(C)C)cn2ncnc12 [Example 332]	1.91	10200	16.9
COc1cc(-c2[nH]nc(-c3ccc(C4CCN(CCS(C)(=O)=O)CC4)cn3)c2C(C)C)cn2ncnc12 [Example 392]	404	> 50000	241
CCCN1CC(c2ccc(-c3n[nH]c(-c4cc(OC)c5ncnn5c4)c3C(C)C)cc2)C1 [Example 330]	1.5	11400	8.34
COc1cc(-c2[nH]nc(-c3ccc(C4CN(C(C)C)C4)cc3)c2C(C)C)cn2ncnc12 [Example 331]	0.49	6310	4.29

More lines, now with the values ahead:

IC50 (human TLR8) [nM]	IC50 (human TLR9) [nM]	IC50 (human TLR7) [nM]	SMILES
1330	> 50000	1220	CCN1CCC(c2ccc(-c3n[nH]c(-c4cc(C)c5ncnn5c4)c3C(C)C)cn2)CC1 [Example 360]
1.09	22100	8.56	Cc1cc(-c2[nH]nc(C3CCC(N4CCOCC4)CC3)c2C(C)C)cn2ncnc12 (single isomer, unassigned) [Example 290]
16.8	6290	5.09	Cc1cc(-c2[nH]nc(C(=O)NC3CCC(NC4(C)COC4)CC3)c2C(C)C)cn2ncnc12 (stereo not drawn) [Example 123]
12	5940	1.4	Cc1cc(-c2[nH]nc(C(=O)N3CCN(CCC#N)CC3)c2C(C)C)cn2ncnc12 [Example 19]
1.02	6520	0.72	Cc1cc(-c2[nH]nc(-c3ncc4c(n3)CNC4)c2C(C)C)cn2ncnc12 [Example 216]
0.14	4170	0.32	Cc1cc(-c2[nH]nc(C3CCN(C(=O)CN(C)C)CC3)c2C(C)C)cn2ncnc12 [compound 209]
14.2	> 50000	9.44	Cc1cc(-c2[nH]nc(C3CCC(N(C)C(=O)C4CN(C)C4)CC3)c2C(C)C)cn2ncnc12 (single isomer, unassigned) [Example 302]
34.5	42100	81.9	Cc1cc(-c2[nH]nc(-c3ccc(C4CCN(CC(C)(C)C)CC4)cn3)c2C(C)C)cn2ncnc12 [Example 373]
21.5	> 50000	41.5	Cc1cc(-c2[nH]nc(C(=O)NC3CN(C(C)C)C3)c2C(C)C)cn2ncnc12 [Example 155]
4.45	7630	1.97	Cc1cc(-c2[nH]nc(C(=O)NC3CCN(C(C)C)CC3)c2CC(F)(F)F)cn2ncnc12 [Example 193]
19.5	45400	1.84	Cc1cc(-c2[nH]nc(C(=O)NCC3CCNCC3)c2C(C)C)cn2ncnc12 [Example 45]
3.46	3600	48	Cc1cc(-c2[nH]nc(C(=O)N[C@H]3CC[C@H](N(CC4CC4)CC4CC4)CC3)c2C(C)C)cn2ncnc12 [Example 103]
1.46	6610	0.58	Cc1cc(-c2[nH]nc(C(=O)NC3CCN(C4COC4)CC3)c2C(C)C)cn2ncnc12 [Example 70]
